In patent US11331284B2 (UNM Rainforest Innovations, priority 2017, dated 2022):

How the values were obtained:
[1] = test system: bone marrow derived macrophages from wild type (autophagy, LC3 puncta); assay: ambroxol dose response assay, LC3 puncta quantified by Cellomics, wild type cells; format: cell-based
[2] = test system: bone marrow derived macrophages from ATG5 knockouts (autophagy, LC3 puncta); assay: ambroxol dose response assay, LC3 puncta quantified by Cellomics, ATG5 knockout cells; format: cell-based
Text: The inventors next studied the same assay, described above, but in ATG5 knockout cells.

[3] = test system: TFEB nuclear translocation; assay: ambroxol induction of TFEB nuclear translocation; format: cell-based
[4] = in humans; reference 1; cited from earlier work

SMILES: Nc1c(Br)cc(Br)cc1CN[C@H]1CC[C@H](O)CC1 [ambroxol, trans-4-[(2-amino-3,5-dibromobenzyl)amino]cyclohexanol]
- concentration as low as which had a positive effect on autophagy ([1]; LC3 puncta, pp242 induction = 100%, t test v. control p=0.025, FIG. 3): 6.25 µM
- dose response of autophagy induction ([1]; ambroxol 0 to 200 uM, FIG. 3): higher ambroxol concentrations result in higher induction of autophagy
- dose response of autophagy induction ([2]; FIG. 4): clear dose response
- concentration as low as which gave appreciable increases in autophagy ([2]; LC3 puncta, t test v. control p=0.0008, FIG. 4): 6.25 µM
- concentration at which significant increases were observed ([3]; FIGS. 5 and 6): 25 µM
- EC50 ([3]; read-out: concentration giving 50% of maximal autophagy induced by ambroxol (sigmoidal fit), both data sets, FIGS. 5 and 6): ~50 µM
- plasma half-life [4]: 3.72 h
